What is called EC50 is the midpoint of the concentration-response curve.

Consider one molecule from PMC7841342, “Elevated ABCB1 Expression Confers Acquired Resistance to Aurora Kinase Inhibitor GSK-1070916 in Cancer Cells” (Frontiers in Pharmacology, 2021).

The target of the assay is ABCB1 (Homo sapiens, UniProt P08183). Nature of the assay: biochemical.
Chain of ABCB1 (P08183 whole entry): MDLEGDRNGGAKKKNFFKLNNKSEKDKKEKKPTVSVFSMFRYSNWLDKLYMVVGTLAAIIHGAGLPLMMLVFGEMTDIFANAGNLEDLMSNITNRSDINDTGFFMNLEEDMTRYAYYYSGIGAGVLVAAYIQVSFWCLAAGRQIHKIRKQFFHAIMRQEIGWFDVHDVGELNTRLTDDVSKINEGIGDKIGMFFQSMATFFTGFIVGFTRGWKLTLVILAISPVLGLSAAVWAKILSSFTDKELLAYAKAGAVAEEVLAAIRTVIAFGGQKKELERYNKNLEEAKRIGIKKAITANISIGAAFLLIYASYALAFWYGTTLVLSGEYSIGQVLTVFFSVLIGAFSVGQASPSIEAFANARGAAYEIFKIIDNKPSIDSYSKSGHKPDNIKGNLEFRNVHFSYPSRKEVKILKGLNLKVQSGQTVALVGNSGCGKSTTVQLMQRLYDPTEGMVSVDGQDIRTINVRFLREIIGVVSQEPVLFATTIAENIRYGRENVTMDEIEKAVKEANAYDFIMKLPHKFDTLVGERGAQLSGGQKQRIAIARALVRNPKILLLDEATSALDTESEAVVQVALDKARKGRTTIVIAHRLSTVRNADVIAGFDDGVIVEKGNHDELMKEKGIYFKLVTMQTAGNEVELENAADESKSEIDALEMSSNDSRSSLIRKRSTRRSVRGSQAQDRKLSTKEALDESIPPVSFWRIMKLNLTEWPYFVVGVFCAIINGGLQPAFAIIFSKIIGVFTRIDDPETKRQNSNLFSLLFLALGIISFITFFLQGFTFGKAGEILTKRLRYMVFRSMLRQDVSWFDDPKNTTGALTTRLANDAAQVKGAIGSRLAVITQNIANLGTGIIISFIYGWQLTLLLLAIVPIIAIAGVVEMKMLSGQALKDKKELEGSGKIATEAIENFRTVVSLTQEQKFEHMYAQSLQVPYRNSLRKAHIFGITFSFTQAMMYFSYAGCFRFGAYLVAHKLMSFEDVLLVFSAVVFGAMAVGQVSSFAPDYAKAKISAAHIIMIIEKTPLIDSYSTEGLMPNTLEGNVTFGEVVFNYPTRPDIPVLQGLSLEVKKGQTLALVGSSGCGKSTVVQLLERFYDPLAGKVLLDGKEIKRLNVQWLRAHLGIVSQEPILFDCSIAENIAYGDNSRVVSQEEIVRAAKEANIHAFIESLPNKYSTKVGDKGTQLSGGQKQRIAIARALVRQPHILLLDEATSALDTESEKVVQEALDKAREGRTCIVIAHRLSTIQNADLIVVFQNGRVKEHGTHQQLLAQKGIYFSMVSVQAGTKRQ

For the molecule `CCn1cc(-c2ccnc3[nH]c(-c4cccc(CN(C)C)c4)cc23)c(-c2ccc(NC(=O)N(C)C)cc2)n1` [GSK-1070916], a half-maximal response (EC50) required 830 nM.
